Assay results published in patent US8236783B2, “ROS-sensitive iron chelators and methods of using the same” (Duke University, priority 2006, dated 2012).
Entries after “also recorded” stand apart in the source; their conditions may differ.

Experiments:
[1] = 2-deoxyribose oxidative degradation assay (hydroxyl radical formation); details: chelator 0-400 μM, 200 μM H2O2, 10 μM FeCl3, 2 mM ascorbic acid, 15 mM deoxyribose, pH 7.4, 60 min at 37° C.
Experimental: Effect of chelator concentration on deoxyribose degradation by OH.. A and A0 are the absorbance at 532 nm in the presence or absence of chelator, respectively. Values below A/Ao=1 indicate protection of deoxyribose. Conditions: 200 μM H2O2, 10 μM FeCl3, 2 mM ascorbic acid, 15 mM deoxyribose in pH 7.4 NaHPO4 buffer.
Values of A/Ao above 1 indicate that the additive promotes OH. formation, whereas values below 1 indicate that the additive either scavenges OH. more efficiently than deoxyribose, or that it inhibits iron-catalyzed OH. formation via effective iron chelation.
The formation of hydroxyl radicals was measured by using a 2-deoxyribose oxidative degradation assay (Aruoma, O. I., Deoxyribose Assay for Detecting Hydroxyl Radicals. In Methods in Enzymol., 1994; Vol. 233, pp 57-66; Halliwell, B. et al., Anal. Biochem. 1987, 165, 215-219). In this assay, hydroxyl radicals, generated by reaction of an iron complex with H2O2 in the presence of ascorbic acid as a reducing agent, attack 2-deoxyribose to form malondialdehyde, which upon heating with TBA at low pH yields a pink chromogen (λmax=532 nm). Scavengers that react more effectively with hydroxyl radicals than deoxyribose result in less chromogen formation. Chelators that prevent iron from reacting with H2O2 also result in a decrease in absorption at 532 nm. Many standard buffers such as HEPES and TRIS are hydroxyl radical scavengers; therefore, we performed all assays in 50 mM NaH2PO4 buffered to pH 7.4. Our standard reaction conditions consisted of 1-mL buffered solutions prepared by sequential addition of the following reagents at their final concentrations: chelator (0-400 μM), FeCl3 (10 μM), 2-deoxyribose (15 mM), H2O2 (200 μM) and ascorbic acid (2 mM). The reactions were stirred for 60 min at 37° C., then quenched with 1 mL of TBA (1% w/v in 0.05 M NaOH) and 1 mL of TCA (2.8% w/v in water). After heating to 100° C. for 20 min, the solutions were cooled to room temperature and their absorbance at 532 nm recorded. The data are reported as A/Ao, where A is the absorbance at a 532 nm at a specific chelator concentration, and Ao is the absorbance at 532 nm for the background reaction containing no added chelator. All measurements were done in triplicate, and error bars reflect the standard deviation from triplicate runs.

[2] = time course for iron complex formation following addition of excess H2O2 (UV-vis); format: physicochemical; details: 100 mM H2O2 added to 1.5 mM Fe(NO3)3 and 3.0 mM BSIH in MeOH
Experimental: FIG. 2. UV-vis spectra showing the formation of [Fe(SIH)]^2+ and [Fe(SIH)2]^+ upon addition of 100 mM H2O2 to a solution of 1.5 mM Fe(NO3)3 and 3.0 mM BSIH in MeOH.
Although the kinetics are complicated by the mono to bis Fe(SIH)x coordination, the data fit a pseudo first-order expression to give kobs=1.6×10^−3 s^−1.

[3] = UV-vis spectra of iron complex formation; format: physicochemical; details: 60 μM BSIH, 30 μM Fe(NO3)3 in MeOH
Source text: FIG. 1. […] The expanded view in the inset compares the mono and bis species [Fe(SIH)Cl2(CH3OH)] and [Fe(SIH)2]NO3, respectively.
These two species are distinguishable by a ligand-field band centered at 658 nm that is more pronounced in the mono species compared to the bis species (FIG. 1 inset).

| Structure (SMILES) | effect of chelator concentration on deoxyribose degradation, A/Ao at 532 nm [1] | kobs (pseudo first-order) for iron complex formation [2] | iron complex formation after addition of H2O2 (UV-vis spectrum) ([3]; 0.6 mM H2O2 added) | complex formation with Fe^3+ (UV-vis spectrum) ([3]; no H2O2) |
| --- | --- | --- | --- | --- |
| CC(=O)N(O)CCCCCNC(=O)CCC(=O)N(O)CCCCCNC(=O)CCC(=O)N(O)CCCCCN [DFO, desferrioxamine] | decrease | – | – | – |
| CC1(C)OB(c2ccccc2C=O)OC1(C)C [Bsal, (2-formylphenyl)boronic acid pinacol ester] | Neither Bsal nor Sal has a significant influence | – | – | – |
| CC1(C)OB(c2ccccc2C=NNC(=O)c2ccncc2)OC1(C)C [BSIH, Isonicotinic acid [2-(4,4,5,5-tetramethyl-[1,3,2]dioxaborolan-2-yl)-benzylidene]-hydrazide] | protects against deoxyribose degradation as well as both DFO and SIH | 0.0016 s⁻¹ | results in formation of a new spectrum matching that of [Fe(SIH)2]^+; also recorded: results in a spectrum (open circles) that matches that of [Fe(SIH)2]^+ | does not form a complex; also recorded: no complex formation |
| O=C(O)CN(CCN(CC(=O)O)CC(=O)O)CC(=O)O [EDTA] | significant increase | – | – | – |
| O=C(NN=Cc1ccccc1O)c1ccncc1 [SIH, salicylaldehyde isonicotinoyl hydrazone] | decrease | – | – | – |
